Molecular target: wild-type human cardiac sodium channel, hNav1.5 (Homo sapiens, UniProt Q14524)
Assay: Late INa screening assay (QPatch whole cell patch clamp, HEK293)
Assay type: cell-based
Conditions: HEK293, percent block of late INa; compound at 1 μM; 10 μM Tefluthrin; read-out: Late INa 1 μM
Description: The late sodium current (Late INa) and peak sodium current (Peak INa) assays are performed on an automated electrophysiology platform, QPatch 16× (Sophion Bioscience, Copenhagen, Denmark), which uses the whole cell patch clamp technique to measure currents through the cell membrane of up to 16 cells at a time. The assay uses an HEK293 (human embryonic kidney) cell line heterologously expressing the wild-type human cardiac sodium channel, hNav1.5, purchased from Millipore (Billerica, Mass.). No beta subunits were coexpressed with the Na channel alpha subunit. Cells are maintained with standard tissue culture procedures and stable channel expression is maintained with 400 μg/mL Geneticin in the culture medium. Cells isolated for use on QPatch are incubated for 5 minutes in Detachin 1×(Genlantis, San Diego, USA) at 37° C. to ensure that 80-90% of the cells are single and not part of a cell cluster. Experiments are carried out at 23-25° C.
For both the Late INa and Peak INa assays, series resistance compensation is set to 100% and series resistance and whole-cell compensation are performed automatically. Currents are digitized at 25 kHz and low-pass filtered at 12 kHz and 10 kHz for the late and peak INa assays, respectively. Currents through open sodium channels are automatically recorded and stored in the Sophion Bioscience Oracle database (Sophion Bioscience, Copenhagen, Denmark). Analysis is performed using QPatch Assay and database software and data are compiled in Excel.
Compound stocks are routinely made by the Gilead Sample Bank in plastic vials to 10 mM in dimethyl sulfoxide (DMSO). In some cases, when compounds are not soluble in DMSO, they are made in 100% ethanol. Stocks are sonicated as necessary. The extracellular solution for screening Late INa is composed of: 140 mM NaCl, 4 mM KCl, 1.8 mM CaCl2, 0.75 mM MgCl2 and 5 mM HEPES with pH adjusted to 7.4 using NaOH. The intracellular solution used to perfuse the inside of the cells for both the Late INa and Peak INa assays contains: 120 mM CsF, 20 mM CsCl, 5 mM EGTA, 5 mM HEPES and pH adjusted to 7.4 with CsOH. Compounds are diluted in extracellular solution to 1 μM in glass vials and then transferred to glass well plates before robotic addition to the cells. The 0 mM Na extracellular solution (0Na-ECF) used at the end of each experiment for the Late INa and Peak INa assays to measure baseline current contains: 140 mM N-methyl-D-glucamine; 4 mM KCl; 1.8 mM CaCl2; 0.75 mM MgCl2; 5 mM HEPES and pH was adjusted to 7.4 with HCl.
For the Late INa assay, sodium channels are activated every 10 seconds (0.1 Hz) by depolarizing the cell membrane to −20 mV for 250 milliseconds (ms) from a holding potential of −120 mV. In response to a −20 mV voltage step, typical hNav1.5 sodium currents activate rapidly to a peak negative current and then inactivate nearly completely within 3-4 ms.
Compounds were tested to determine their activity in blocking the late sodium current. Late INa was generated by adding 10 μM Tefluthrin (pyrethroid) to the extracellular solution while recording Na currents. […] ATX-II and tefluthrin occupy distinct, non-overlapping binding sites and modify Na^+ channel function differently to increase late INa. […] After establishing the whole cell recording configuration, late INa activator is added to each well 4 times over a 16-17 minute period so that the late component of the Na current reaches a stable value.
Results are reported as percent block of late INa.

Chain of wild-type human cardiac sodium channel, hNav1.5 (Q14524 whole entry): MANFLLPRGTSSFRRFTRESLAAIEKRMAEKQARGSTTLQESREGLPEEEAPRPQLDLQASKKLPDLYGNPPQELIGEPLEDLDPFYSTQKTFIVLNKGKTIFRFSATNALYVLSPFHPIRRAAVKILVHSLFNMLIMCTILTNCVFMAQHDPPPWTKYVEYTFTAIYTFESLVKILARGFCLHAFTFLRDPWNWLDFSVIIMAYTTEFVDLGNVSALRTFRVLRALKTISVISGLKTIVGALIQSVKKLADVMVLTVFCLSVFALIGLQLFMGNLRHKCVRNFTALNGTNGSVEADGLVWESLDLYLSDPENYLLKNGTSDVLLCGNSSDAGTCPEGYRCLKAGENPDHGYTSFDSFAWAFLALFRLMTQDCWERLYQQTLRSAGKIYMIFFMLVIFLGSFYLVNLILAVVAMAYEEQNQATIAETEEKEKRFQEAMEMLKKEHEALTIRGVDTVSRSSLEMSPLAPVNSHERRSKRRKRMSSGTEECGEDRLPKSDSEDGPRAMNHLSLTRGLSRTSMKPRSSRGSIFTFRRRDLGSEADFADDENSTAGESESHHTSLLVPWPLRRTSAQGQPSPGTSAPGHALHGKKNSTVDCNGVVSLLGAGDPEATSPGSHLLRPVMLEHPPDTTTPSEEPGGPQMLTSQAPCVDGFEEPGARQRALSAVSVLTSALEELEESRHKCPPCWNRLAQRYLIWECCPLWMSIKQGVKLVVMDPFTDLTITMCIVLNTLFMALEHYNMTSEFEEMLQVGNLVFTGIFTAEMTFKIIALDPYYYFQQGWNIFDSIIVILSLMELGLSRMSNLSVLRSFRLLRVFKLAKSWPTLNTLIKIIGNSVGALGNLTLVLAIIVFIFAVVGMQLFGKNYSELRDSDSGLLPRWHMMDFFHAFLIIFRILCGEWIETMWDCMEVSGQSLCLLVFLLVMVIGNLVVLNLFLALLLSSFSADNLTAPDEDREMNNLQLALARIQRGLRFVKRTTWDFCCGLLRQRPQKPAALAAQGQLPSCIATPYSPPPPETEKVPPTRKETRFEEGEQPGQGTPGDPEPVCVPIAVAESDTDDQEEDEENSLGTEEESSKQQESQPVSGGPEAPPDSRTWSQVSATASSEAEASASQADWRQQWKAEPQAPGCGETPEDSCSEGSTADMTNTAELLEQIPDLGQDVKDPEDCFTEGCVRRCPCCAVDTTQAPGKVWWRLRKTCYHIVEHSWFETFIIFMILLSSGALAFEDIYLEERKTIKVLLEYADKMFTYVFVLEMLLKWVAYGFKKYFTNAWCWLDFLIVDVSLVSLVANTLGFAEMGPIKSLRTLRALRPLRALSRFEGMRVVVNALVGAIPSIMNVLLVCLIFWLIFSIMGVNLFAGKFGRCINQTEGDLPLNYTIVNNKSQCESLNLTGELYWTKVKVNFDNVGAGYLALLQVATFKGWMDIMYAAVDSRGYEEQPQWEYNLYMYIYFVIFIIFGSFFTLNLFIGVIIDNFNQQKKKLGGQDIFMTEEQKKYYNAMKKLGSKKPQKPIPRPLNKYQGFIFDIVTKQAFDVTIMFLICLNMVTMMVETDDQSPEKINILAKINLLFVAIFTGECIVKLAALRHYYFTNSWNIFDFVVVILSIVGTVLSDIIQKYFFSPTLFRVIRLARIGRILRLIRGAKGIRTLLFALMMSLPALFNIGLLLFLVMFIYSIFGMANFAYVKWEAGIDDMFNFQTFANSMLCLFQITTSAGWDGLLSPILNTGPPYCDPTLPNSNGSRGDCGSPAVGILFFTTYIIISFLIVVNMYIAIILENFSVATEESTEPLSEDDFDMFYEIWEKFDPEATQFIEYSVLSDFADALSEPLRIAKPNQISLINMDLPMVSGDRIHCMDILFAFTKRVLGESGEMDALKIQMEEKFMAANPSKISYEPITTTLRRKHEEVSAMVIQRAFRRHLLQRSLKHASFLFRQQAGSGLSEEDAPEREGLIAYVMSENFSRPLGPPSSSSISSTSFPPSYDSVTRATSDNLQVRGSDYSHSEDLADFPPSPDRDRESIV

Q: With `O=C1c2cc(-c3ccc(OC(F)(F)F)cc3)ccc2OCCN1Cc1ccncc1` [II-67, 4-(pyridin-4-ylmethyl)-7-(4-(trifluoromethoxy)phenyl)-3,4-dihydrobenzo[f][1,4]oxazepin-5(2H)-one] as the molecule, how does the inhibition at 1 µM read?
A: The inhibition at 1 µM was 22%.

Q: For `O=C1c2cc(-c3ccc(OC(F)(F)F)cc3)ccc2OCCN1Cc1nnc(C2CC2)o1` [II-68, 4-((5-cyclopropyl-1,3,4-oxadiazol-2-yl)methyl)-7-(4-(trifluoromethoxy)phenyl)-3,4-dihydrobenzo[f][1,4]oxazepin-5(2H)-one], which inhibition at 1 µM is on record?
A: The inhibition at 1 µM was 17%.

Q: For `O=C1c2cc(-c3ccc(OC(F)(F)F)cc3)ccc2OCCN1CCOc1ncccn1` [II-69, 4-(2-(pyrimidin-2-yloxy)ethyl)-7-(4-(trifluoromethoxy)phenyl)-3,4-dihydrobenzo[f][1,4]oxazepin-5(2H)-one], which inhibition at 1 µM is on record?
A: Its inhibition at 1 µM is 33%.

Q: Which inhibition at 1 µM does the source give for `O=C1c2cc(-c3ccc(OC(F)(F)F)cc3)ccc2OCCN1Cc1cccnc1` [II-70, 4-(pyridin-3-ylmethyl)-7-(4-(trifluoromethoxy)phenyl)-3,4-dihydrobenzo[f][1,4]oxazepin-5(2H)-one] here?
A: The inhibition at 1 µM was 37%.

Q: Which inhibition at 1 µM does the source give for `O=C1c2cc(-c3ccc(OC(F)(F)F)cc3)ccc2OCCN1CCO` [II-71, 4-(2-hydroxyethyl)-7-(4-(trifluoromethoxy)phenyl)-3,4-dihydrobenzo[f][1,4]oxazepin-5(2H)-one] here?
A: Its inhibition at 1 µM is 12%.

Q: `O=C1NCCOc2ccc(-c3ccc(OC(F)(F)F)cc3)cc21` [II-74, 7-(4-(trifluoromethoxy)phenyl)-3,4-dihydrobenzo[f][1,4]oxazepin-5(2H)-one] was tested. Which inhibition at 1 µM did it give?
A: Its inhibition at 1 µM is 12%.

Q: With `CC(C)[C@H]1COc2ccc(-c3ccc(C(F)(F)F)cc3)cc2C(=O)N1` [II-77, (S)-3-isopropyl-7-(4-(trifluoromethyl)phenyl)-3,4-dihydrobenzo[f][1,4]oxazepin-5(2H)-one] as the molecule, how does the inhibition at 1 µM read?
A: Its inhibition at 1 µM is 21%.

Q: Which inhibition at 1 µM does the source give for `Cc1ccc(-c2ccc3c(c2)C(=O)N(Cc2ncccn2)CCO3)cc1` [II-87, 4-(pyrimidin-2-ylmethyl)-7-p-tolyl-3,4-dihydrobenzo[f][1,4]oxazepin-5(2H)-one] here?
A: The inhibition at 1 µM was 22%.

Q: `CC(C)c1ccc(-c2ccc3c(c2)C(=O)N(Cc2ncccn2)CCO3)cc1` [II-89, 7-(4-isopropylphenyl)-4-(pyrimidin-2-ylmethyl)-3,4-dihydrobenzo[f][1,4]oxazepin-5(2H)-one] was tested. Which inhibition at 1 µM did it give?
A: The inhibition at 1 µM was 28%.

Q: Which inhibition at 1 µM does the source give for `O=C1c2cc(-c3ccc(C4CC4)cc3)ccc2OCCN1Cc1ncccn1` [II-92, 7-(4-cyclopropylphenyl)-4-(pyrimidin-2-ylmethyl)-3,4-dihydrobenzo[f][1,4]oxazepin-5 (2H)-one] here?
A: The inhibition at 1 µM was 34%.

Q: Which inhibition at 1 µM does the source give for `C[C@H](c1ncccn1)N1CCOc2ccc(-c3ccc(C(F)(F)F)cc3)cc2C1=O` [II-95, (R)-4-(1-(pyrimidin-2-yl)ethyl)-7-(4-(trifluoromethyl)phenyl)-3,4-dihydrobenzo[f][1,4]oxazepin-5(2H)-one] here?
A: The inhibition at 1 µM was 19%.

Q: For `CC(C)COc1ccc(-c2ccc3c(c2)C(=O)N(Cc2ncccn2)CCO3)cc1` [II-97, 7-(4-isobutoxyphenyl)-4-(pyrimidin-2-ylmethyl)-3,4-dihydrobenzo[f][1,4]oxazepin-5 (2H)-one], which inhibition at 1 µM is on record?
A: Its inhibition at 1 µM is 36%.

Q: With `O=C1c2cc(-c3ccc(OC4CC4)cc3)ccc2OCCN1Cc1ncccn1` [II-102, 7-(4-cyclopropoxyphenyl)-4-(pyrimidin-2-ylmethyl)-3,4-dihydrobenzo[f][1,4]oxazepin-5(2H)-one] as the molecule, how does the inhibition at 1 µM read?
A: Its inhibition at 1 µM is 21%.

Q: Which inhibition at 1 µM does the source give for `O=C1c2cc(-c3ccc(F)cc3)ccc2OCCN1Cc1ncccn1` [II-104, 7-(4-fluorophenyl)-4-(pyrimidin-2-ylmethyl)-3,4-dihydrobenzo[f][1,4]oxazepin-5(2H)-one] here?
A: The inhibition at 1 µM was 21%.

Q: `O=C1c2cc(-c3ccc(OCC(F)(F)F)c(F)c3)ccc2OCCN1Cc1ncccn1` [II-106, 7-(3-fluoro-4-(2,2,2-trifluoroethoxy)phenyl)-4-(pyrimidin-2-ylmethyl)-3,4-dihydrobenzo[f][1,4]oxazepin-5(2H)-one] was tested. Which inhibition at 1 µM did it give?
A: The inhibition at 1 µM was 18%.

Q: `O=C1c2cc(-c3ccc(OCC(F)(F)F)cc3)ccc2OCCN1Cc1ncccn1` [II-107, 4-(pyrimidin-2-ylmethyl)-7-(4-(2,2,2-trifluoroethoxy)phenyl)-3,4-dihydrobenzo[f][1,4]oxazepin-5(2H)-one] was tested. Which inhibition at 1 µM did it give?
A: The inhibition at 1 µM was 18%.

Q: For `O=C1c2cc(-c3ccc(OC(F)(F)F)cc3)ccc2OCCN1Cc1nccc(C(F)(F)F)n1` [II-113, 7-(4-(trifluoromethoxy)phenyl)-4-((4-(trifluoromethyl)pyrimidin-2-yl)methyl)-3,4-dihydrobenzo[f][1,4]oxazepin-5(2H)-one], which inhibition at 1 µM is on record?
A: The inhibition at 1 µM was 27%.

Q: How did the inhibition at 1 µM turn out when `O=C1c2cc(-c3ccc(OC(F)(F)F)cc3)ccc2OCCN1Cc1ncc(-c2ccc(C(F)(F)F)nc2)cn1` [II-115, 7-(4-(trifluoromethoxy)phenyl)-4-((5-(6-(trifluoromethyl)pyridin-3-yl)pyrimidin-2-yl)methyl)-3,4-dihydrobenzo[f][1,4]oxazepin-5(2H)-one] was run?
A: Its inhibition at 1 µM is 21%.

Q: For `N#CC1(c2ccc(-c3ccc4c(c3)C(=O)N(Cc3ncccn3)CCO4)cc2)CCCC1` [II-122, 1-(4-(5-oxo-4-(pyrimidin-2-ylmethyl)-2,3,4,5-tetrahydrobenzo[f][1,4]oxazepin-7-yl)phenyl)cyclopentanecarbonitrile], which inhibition at 1 µM is on record?
A: The inhibition at 1 µM was 19%.

Q: For `CCOc1ccc(-c2ccc3c(c2)C(=O)N(Cc2ncccn2)CCO3)cc1` [II-123, 7-(4-ethoxyphenyl)-4-(pyrimidin-2-ylmethyl)-3,4-dihydrobenzo[f][1,4]oxazepin-5(2H)-one], which inhibition at 1 µM is on record?
A: The inhibition at 1 µM was 21%.

Q: With `O=C1c2cc(-c3ccc(C(F)F)cc3)ccc2OCCN1Cc1ncccn1` [II-124, 7-(4-(difluoromethyl)phenyl)-4-(pyrimidin-2-ylmethyl)-3,4-dihydrobenzo[f][1,4]oxazepin-5(2H)-one] as the molecule, how does the inhibition at 1 µM read?
A: The inhibition at 1 µM was 17%.

Q: For `O=C1c2cc(-c3ccc(OC(F)(F)F)cc3)ccc2OCCN1Cc1nccc(N2CCOCC2)n1` [II-133], which inhibition at 1 µM is on record?
A: Its inhibition at 1 µM is 23%.

Q: Which inhibition at 1 µM does the source give for `O=C1c2cc(-c3ccc(C(F)(F)F)c(F)c3)ccc2OCCN1Cc1ncccn1` [II-136, 7-(3-fluoro-4-(trifluoromethyl)phenyl)-4-(pyrimidin-2-ylmethyl)-3,4-dihydrobenzo[f][1,4]oxazepin-5(2H)-one] here?
A: Its inhibition at 1 µM is 30%.

Q: With `O=C1c2cc(-c3ccc(OC(F)(F)F)cc3)ccc2OCCN1Cc1nccc(N2CCCCC2)n1` [II-139, 4-((4-(piperidin-1-yl)pyrimidin-2-yl)methyl)-7-(4-(trifluoromethoxy)phenyl)-3,4-dihydrobenzo[f][1,4]oxazepin-5(2H)-one] as the molecule, how does the inhibition at 1 µM read?
A: The inhibition at 1 µM was 31%.

Q: How did the inhibition at 1 µM turn out when `CN(C)c1ccnc(CN2CCOc3ccc(-c4ccc(OC(F)(F)F)cc4)cc3C2=O)n1` [II-140, 4-((4-(dimethylamino)pyrimidin-2-yl)methyl)-7-(4-(trifluoromethoxy)phenyl)-3,4-dihydrobenzo[f][1,4]oxazepin-5(2H)-one] was run?
A: Its inhibition at 1 µM is 32%.

Q: With `O=C1NC(Cc2ccccn2)COc2ccc(-c3ccc(OC(F)(F)F)cc3)cc21` (centres unmarked) [II-142, 3-(pyridin-2-ylmethyl)-7-(4-(trifluoromethoxy)phenyl)-3,4-dihydrobenzo[f][1,4]oxazepin-5(2H)-one] as the molecule, how does the inhibition at 1 µM read?
A: Its inhibition at 1 µM is 19%.

Q: Which inhibition at 1 µM does the source give for `Cc1cc(C(F)(F)F)ccc1-c1ccc2c(c1)C(=O)N(Cc1ncccn1)CCO2` [II-145, 7-(2-methyl-4-(trifluoromethyl)phenyl)-4-(pyrimidin-2-ylmethyl)-3,4-dihydrobenzo[f][1,4]oxazepin-5(2H)-one] here?
A: Its inhibition at 1 µM is 19%.

Q: Which inhibition at 1 µM does the source give for `Cc1cc(OC(F)(F)F)ccc1-c1ccc2c(c1)C(=O)N(Cc1ncccn1)CCO2` [II-146, 7-(2-methyl-4-(trifluoromethoxy)phenyl)-4-(pyrimidin-2-ylmethyl)-3,4-dihydrobenzo[f][1,4]oxazepin-5(2H)-one] here?
A: The inhibition at 1 µM was 36%.

Same assay, conditions: percent block of late INa; compound at 1 μM; 10 μM Tefluthrin

Q: For `O=C1c2cc(-c3ccc(C(F)(F)F)cc3)ccc2OCCN1Cc1cn2ccccc2n1` [II-135, 4-(imidazo[1,2-a]pyridin-2-ylmethyl)-7-(4-(trifluoromethyl)phenyl)-3,4-dihydrobenzo[f][1,4]oxazepin-5(2H)-one], which “Late INa 1 μM” value is on record?
A: The value was 32%.

Reference: patent US9676760B2, “Fused heterocyclic compounds as ion channel modulators” (Gilead Sciences, Inc., priority 2011, dated 2017)
